Measurements from patent US12252478B2.
Where “and” joins values, the source holds several entries; their conditions need not be identical. Equal values may be shown once.

Assays:
[1] = Solubility as a function of pH; assay type: physicochemical; conditions: above pH 3
[2] = Hygroscopicity (water uptake); assay type: physicochemical
[3] = Intrinsic dissolution rate (VanKel instrument, Cary 100 photometer); assay type: physicochemical
Experimental: As measured on a VanKel instrument using a Cary 100 photometer, the intrinsic dissolution rate of Form A was determined in pH 4.5, pH 6.8 and 0.1 N HCl medium as follows:
As measured on a VanKel instrument using a Cary 100 photometer, the intrinsic dissolution rate of Form A was determined in pH 3.5, pH 4.5 and 0.1 N HCl medium as follows: […]

[4] = Thermodynamic stability of Forms A and B: heating and cooling cycles, transition temperatures
[5] = Equilibration in water depending on pH / form conversion; assay type: physicochemical
Excerpt: Forms A and B are enantiotropically related. […] Form B spontaneously transforms to Form A at ambient conditions. Form A can be converted to Modification HA, or Form HA, when equilibrated in water at pH 1.

[6] = heating/cooling rate 0.5° C./min
[7] = heating/cooling rate 10° C./min
[8] = heating/cooling rate 20° C./min
[9] = heating/cooling rate 40° C./min

Which results are given for O=C(Nc1ccc(OC(F)(F)Cl)cc1)c1cnc(N2CC[C@@H](O)C2)c(-c2ccn[nH]2)c1 [Free Base form A]?
solubility [1]: rather low; water uptake ([2]; 25° C. up to 92% relative humidity): less than 0.1%; Intrinsic DR value ([3]; Acetate buffer pH 4.5): n.a (does not dissolve); Intrinsic DR value ([3]; HCL 0.1N): 1.8 mg/min/cm2 and 1.9 mg/min/cm2; Intrinsic DR value ([3]; pH = 6.8): n.a (does not dissolve)

Which results are given for Cl.O=C(Nc1ccc(OC(F)(F)Cl)cc1)c1cnc(N2CC[C@@H](O)C2)c(-c2ccn[nH]2)c1 [crystal form B of the hydrochloride salt]?
form stability at ambient conditions ([4]; ambient conditions): spontaneously transforms back into Form A; transition B → A [4, 6]: 60.5 °C; transition B → A ([4]; heating/cooling rate 1° C./min): 53.8 °C; transition B → A ([4]; heating/cooling rate 5° C./min): 38.5 °C; transition B → A [4, 7]: 37.5 °C; transition B → A [4, 8]: 34.7 °C; transition B → A [4, 9]: 32.2 °C; decomposition observed ([4]; upon heating): above 240 °C

With Cl.O=C(Nc1ccc(OC(F)(F)Cl)cc1)c1cnc(N2CC[C@@H](O)C2)c(-c2ccn[nH]2)c1 [form A of HCl salt] as the molecule, how does the “behaviour when equilibrated in water” value ([5]; pH 1) read?
The value was “converting into the trihydrate HA”.

What about the “behaviour when equilibrated in water” value ([5]; pH>3.5) of the same molecule?
The value was “prone to disproportionate”.

And the “transition A → B” value [4, 6]?
The value was 95.1 °C.

What about the “transition A → B” value ([4]; heating/cooling rate 1° C./min) of the same molecule?
The value was 96.5 °C.

And the “transition A → B” value ([4]; heating/cooling rate 5° C./min)?
Its value is 100.3 °C.

And the “transition A → B” value [4, 7]?
Its value is 102.1 °C.

And the “transition A → B” value [4, 8]?
The value was 104.8 °C.

And the “transition A → B” value [4, 9]?
Its value is 103.7 °C.

And the solubility [1]?
Its solubility is “rather low”.

What about the water uptake ([2]; 25° C. up to 95% relative humidity) of the same molecule?
The water uptake was “less than 0.4%”.

And the “Intrinsic DR value” ([3]; Acetate buffer pH 4.5)?
Its value is 0.01 mg/min/cm2.

What about the “Intrinsic DR value” ([3]; Citrate buffer (pH 3.5)) of the same molecule?
Its value is 0.02 mg/min/cm2.

And the “Intrinsic DR value” ([3]; HCL 0.01N (pH 2))?
The value was 2.25 mg/min/cm2.

What about the “Intrinsic DR value” ([3]; HCL 0.1N (pH 1)) of the same molecule?
Its value is 0.16 mg/min/cm2.
